Assay results taken from patent publication US7427469B2, “Method of treating cytomegalovirus with DC-SIGN blockers” (priority 2002, dated 2008).

Tests used:
CMV = CMV trans-infection assay: virus-pulsed DC-SIGN+ cells co-cultured with MRC-5 cells; type: cell-based, Human Cytomegalovirus; conditions: MD-DC, DC-SIGN+ THP-1 or DC-SIGN+ HeLa cells pre-incubated before pulse with CMV
Description: For trans-infection experiments, cells were incubated with viral suspensions (CMV, VZV or HSV-1, MOI=1) for 2 hr, at 37° C. Thereafter, unbound viral particles were removed by extensive washes and cells were co-cultured with sub-confluent MRC-5 or U373 MG cell monolayers. After 24 to 72 hr, infected MRC-5 or U373-MG cells were fixed, permeabilized and stained with specific mAbs directed against IEA- or EA-CMV (mAbs E13 and 2A2, respectively), VZV (mAb 2013) or HSV (mAb CHA-437) (Argen Biosoft, Varilhes, France). When indicated MD-DC or THP-1 (parental or DC-SIGN^+) cells were incubated with EGTA (5 mM), mannan or anti-DC-SIGN (1B10.2.6 mAb) for 30 minutes at 4° C. prior challenge with infectious preparations. Infection by ADGFP strain was assessed by counting GFP-expressing cells at day 3. For long term infectivity experiments DC-SIGN^+ or parental THP-1 cells were incubated with ADGFP (MOI=1) for 4 hr at 37° C. After extensive washes, infected cells were incubated at 37° C. and an aliquot of these cells was added to a sub-confluent MRC-5 cell culture every 2 days during the assay.
MD-DC, THP-1 or HeLa expressing DC-SIGN were incubated with a mutant CMV strain encoding a GFP (ADGFP) (Borst et al., 2001). […]
The capacity of DC-SIGN to enhance infectiveness of CMV was assessed. […]

DC-SIGNR = molecular target: T1, DC-SIGNR (Homo sapiens, UniProt Q9H2X3); type: binding; conditions: data not shown
T1 construct: expressed in transfected cells; host or cells: HEK 293T, transient transfection; cDNA a gift from Dr R. W. Doms
T1 sequence (Q9H2X3 whole entry): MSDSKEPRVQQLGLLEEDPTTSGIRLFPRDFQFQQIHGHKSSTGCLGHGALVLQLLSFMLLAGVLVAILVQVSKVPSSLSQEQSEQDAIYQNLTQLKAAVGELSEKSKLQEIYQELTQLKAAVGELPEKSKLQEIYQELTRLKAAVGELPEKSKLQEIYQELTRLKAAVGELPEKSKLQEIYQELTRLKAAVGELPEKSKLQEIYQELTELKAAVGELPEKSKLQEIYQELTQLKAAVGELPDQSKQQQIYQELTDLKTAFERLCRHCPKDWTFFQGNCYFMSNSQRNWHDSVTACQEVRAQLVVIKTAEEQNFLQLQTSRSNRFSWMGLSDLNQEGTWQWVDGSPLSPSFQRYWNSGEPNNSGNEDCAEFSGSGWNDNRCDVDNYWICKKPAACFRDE

DC-SIGN [1] = molecular target: T2, DC-SIGN (Homo sapiens, UniProt Q9NNX6); type: binding; set-up: expressed in transfected cells; conditions: data not shown
T2 sequence (Q9NNX6 1-404): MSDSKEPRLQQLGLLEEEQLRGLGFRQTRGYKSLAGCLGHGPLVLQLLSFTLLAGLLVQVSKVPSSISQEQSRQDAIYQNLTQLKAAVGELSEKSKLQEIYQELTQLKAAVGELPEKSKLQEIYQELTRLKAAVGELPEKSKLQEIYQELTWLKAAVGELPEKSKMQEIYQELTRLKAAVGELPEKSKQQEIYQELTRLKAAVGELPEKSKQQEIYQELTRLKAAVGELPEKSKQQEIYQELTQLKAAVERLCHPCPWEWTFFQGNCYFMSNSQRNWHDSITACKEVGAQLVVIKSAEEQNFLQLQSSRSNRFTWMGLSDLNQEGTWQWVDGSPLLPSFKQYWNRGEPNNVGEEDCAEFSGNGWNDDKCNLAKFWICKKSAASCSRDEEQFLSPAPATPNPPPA

DC-SIGN [2] = molecular target: T2, DC-SIGN; experiment: Binding of CMV virions to DC-SIGN-expressing cells (flow cytometry, anti-CMV gB mAb); type: cell-based; set-up: expressed in transfected cells; host or cells: THP-1 (gift of Dr. D. R. Littman; Kwon et al., 2002); conditions: pre-incubation of cells with the substance
Description: The capacity of CMV to bind DC-SIGN was investigated. Parental and DC-SIGN^+ THP-1 cells, or immature monocyte-derived DC (MD-DC) were incubated on ice with increasing concentrations of CMV and the presence of cell-bound virions was quantified by flow cytometry using a mAb directed against the CMV gB.

DC-SIGN [3] = molecular target: T2, DC-SIGN; experiment: HIV-1 gp120 binding competition assay on DC-SIGN+ THP-1 cells; set-up: expressed in transfected cells; host or cells: THP-1 (gift of Dr. D. R. Littman; Kwon et al., 2002); conditions: DC-SIGN+ THP-1 cells pre-treated with competitors (20 μg/ml)
Description: DC-SIGN^+ THP-1 cells were washed two times, resuspended in ice-cold binding buffer (1 mM CaCl2, 2 mM MgCl2 and 0.1% Bovine Serum Albumin in PBS) at 10^6 cells/mL and pre-treated or not for 15 minutes with competitors (20 μg/ml). Thereafter, recombinant biotinylated CXCR4-tropic (MN isolate) HIV-1 gp120 (2 μg/ml; Immunodiagnostics Inc., Woburg, Mass.) was added for 30 minutes at 4° C.
In this assay we pre-incubated DC-SIGN^+ THP-1 cells with purified HIV-1 gp120, CMV gB, HSV-1 gB, VZV gB, HSV-1 gD or VZV gE. Following exposure to each single envelope glycoprotein, cells were incubated with biotinylated HIV-1 gp120, which binding to DC-SIGN^+ THP-1 cells was evidenced by immunostaining and FACS analysis.

Molecule	Trans-infection of MRC-5 cells / transmission of CMV from DC-SIGN+ cells to MRC-5 cells (CMV)	Binding of HIV-1 gp120 and CMV gB to HEK 293T cells expressing DC-SIGNR (DC-SIGNR)	Binding of HIV-1 gp120 and CMV gB to HEK 293T cells expressing DC-SIGN (DC-SIGN [1])	CMV virion attachment to cells (DC-SIGN [2])	Binding of biotinylated HIV-1 gp120 on DC-SIGN (competition) (DC-SIGN [3])
O=C(O)CN(CCOCCOCCN(CC(=O)O)CC(=O)O)CC(=O)O [EGTA]	prevented	blocked	blocked	–	–
mannan	prevented	–	–	Abrogation	competitive effect
